Laboratory results reported in paper PMC3813140, “Lipophilicity Examination of Some ACE inhibitors andHydrochlorothiazide on Cellulose in RP Thin-Layer Chromatography” (Iranian Journal of Pharmaceutical Research : IJPR, 2012).

Assay: RP-TLC on cellulose layers, lipophilicity evaluation with water-organic modifier binary solvent systems
Assay type: physicochemical
Conditions: for relative lipophilicity among the investigated substances: RP-TLC on cellulose, all mobile phases; for hRF / - m (slope, specific hydrophobic surface area) / C0 (hydrophobicity parameter, C0 = - RM0/m) / RM0 (intercept, hydrophobicity parameter): cellulose; for - m (slope, specific hydrophobic surface area) / C0 (hydrophobicity parameter, C0 = - RM0/m) / RM0 (intercept, hydrophobicity parameter): organic modifier 10-30%
Procedure: The three, water-organic modifier, binary solvent systems were used with different volume fractions. All components of mobile phases were of analytical grade of purity.
The TLC experiments were performed on 10 cm × 10 cm cellulose (Art. 105552, Merck, Germany) layers.
After the development, the detection was performed by exposing the plates to iodine vapour. All investigations were performed at room temperature (22 ± 2 °C).
The RF -values were calculated according to the relationship:
RF = Distance of spot from origin / Distance of mobile phase front from origin
Here, RM-values were calculated for each solute in each mobile phase according to the Bate-Smith and Westall equation ([29]):
RM=log (1/RF-1) (Equation 1)
In an aim to establish the reversed-phase TLC on cellulose, the mobile phase had to be more polar than the cellulose.
The retention behavior of biological active substances investigated in RP-TLC can be presented as the relationship between the RM-values and the content of organic modifier in mobile phase through the linear Equation ([16]):
RM = R^0M + mC (Equation 2)
The value of the intercept, R^0M, represents the lipophilicity of the examined substance and the value of the slope, m, corresponds to the specific hydrophobic surface area of this substance, while C represents the volume fraction of the organic modifier in mobile phase.
By the analogy through the hydrophobicity parameter of φ0 ([6], [7]), previously defined for the HPLC method as the concentration of the organic modifier in the mobile phase for which the distribution of the analyzed substance between the mobile and stationary phase was equal (1:1) another hydrophobicity parameter, C0, can be calculated. The hydrophobicity parameter, C0, represents the volume fraction of the organic modifier in mobile phase where RM = 0 ([11]-[12]) and it can be calculated as C0 = - R^0M / m.

[1] = water-acetone, 10 vol% organic modifier
[2] = water-acetone, 15 vol% organic modifier
[3] = water-acetone, 20 vol% organic modifier
[4] = water-acetone, 25 vol% organic modifier
[5] = water-acetone, 30 vol% organic modifier
[6] = water-ethanol, 10 vol% organic modifier
[7] = water-ethanol, 15 vol% organic modifier
[8] = water-ethanol, 20 vol% organic modifier
[9] = water-ethanol, 25 vol% organic modifier
[10] = water-ethanol, 30 vol% organic modifier
[11] = water-methanol, 10 vol% organic modifier
[12] = water-methanol, 15 vol% organic modifier
[13] = water-methanol, 20 vol% organic modifier
[14] = water-methanol, 25 vol% organic modifier
[15] = water-methanol, 30 vol% organic modifier

## CCOC(=O)[C@H](CCc1ccccc1)N[C@@H](C)C(=O)N1Cc2ccccc2C[C@H]1C(=O)O [Substance 2, [3S-[2[R* (R*)],3R*]]-2-[2-[[1-(ethoxycarbonyl)-3-phenylpropyl]amino]-1-oxopropyl]-1,2,3,4-tetrahydro-3-isoquinolinecarboxylic acid]
  relative lipophilicity among the investigated substances: most lipophilic
[1]
  hRF: 55
[2]
  hRF: 60
[3]
  hRF: 66
[4]
  hRF: 70
[5]
  hRF: 73
water-acetone
  - m (slope, specific hydrophobic surface area): 1.763 ± 0.001
  C0 (hydrophobicity parameter, C0 = - RM0/m): 0.047
  RM0 (intercept, hydrophobicity parameter): 0.082 ± 0.020
[6]
  hRF: 65
[7]
  hRF: 70
[8]
  hRF: 74
[9]
  hRF: 79
[10]
  hRF: 82
water-ethanol
  - m (slope, specific hydrophobic surface area): 1.974 ± 0.001
[11]
  hRF: 53
[12]
  hRF: 58
[13]
  hRF: 65
[14]
  hRF: 68
[15]
  hRF: 71
water-methanol
  - m (slope, specific hydrophobic surface area): 1.721 ± 0.001
  C0 (hydrophobicity parameter, C0 = - RM0/m): 0.063
  RM0 (intercept, hydrophobicity parameter): 0.109 ± 0.032

## NS(=O)(=O)c1cc2c(cc1Cl)NCNS2(=O)=O [HCTZ, 6-chloro-3,4-dihydro-2H-1,2,4-benzothiadiazine-7-sulfonamide,1,1-dioxide]
[1]
  hRF: 83
[2]
  hRF: 85
[3]
  hRF: 88
[4]
  hRF: 92
[5]
  hRF: 95
water-acetone
  - m (slope, specific hydrophobic surface area): 2.975 ± 0.004
[6]
  hRF: 85
[7]
  hRF: 87
[8]
  hRF: 90
[9]
  hRF: 93
[10]
  hRF: 95
water-ethanol
  - m (slope, specific hydrophobic surface area): 2.697 ± 0.002
[11]
  hRF: 80
[12]
  hRF: 83
[13]
  hRF: 85
[14]
  hRF: 90
[15]
  hRF: 92
water-methanol
  - m (slope, specific hydrophobic surface area): 2.366 ± 0.023

## CCOC(=O)[C@H](CCc1ccccc1)N[C@H]1CCCN2CCC[C@@H](C(=O)O)N2C1=O [Substance 4, [1S-[1α,9α (R*)]]-9-[[1-(ethoxycarbonyl)-3-phenylpropyl]amino] octahydro-10-oxo-6H-pyridazino [1,2-a] [1,2] diazepine-1-carboxylic acid monohydrate]
[1]
  hRF: 66
[2]
  hRF: 70
[3]
  hRF: 73
[4]
  hRF: 77
[5]
  hRF: 80
water-acetone
  - m (slope, specific hydrophobic surface area): 1.569 ± 0.001
[6]
  hRF: 73
[7]
  hRF: 76
[8]
  hRF: 79
[9]
  hRF: 83
[10]
  hRF: 88
water-ethanol
  - m (slope, specific hydrophobic surface area): 2.109 ± 0.002
[11]
  hRF: 60
[12]
  hRF: 68
[13]
  hRF: 75
[14]
  hRF: 80
[15]
  hRF: 85
water-methanol
  - m (slope, specific hydrophobic surface area): 2.858 ± 0.001
  C0 (hydrophobicity parameter, C0 = - RM0/m): 0.036
  RM0 (intercept, hydrophobicity parameter): 0.104 ± 0.010

## NCCCC[C@H](NC(CCc1ccccc1)C(=O)O)C(=O)N1CCC[C@H]1C(=O)O.O.O (stereo partly drawn) [Substance 3, (S)-1-[N^2-(1-carboxy-3-phenylpropyl)-L-lysyl]-L-proline dihydrate]
  relative lipophilicity among the investigated substances: most hydrophilic
[1]
  hRF: 86
[2]
  hRF: 90
[3]
  hRF: 92
[4]
  hRF: 94
[5]
  hRF: 96
water-acetone
  - m (slope, specific hydrophobic surface area): 2.849 ± 0.001
[6]
  hRF: 91
[7]
  hRF: 93
[8]
  hRF: 95
[9]
  hRF: 96
[10]
  hRF: 97
water-ethanol
  - m (slope, specific hydrophobic surface area): 2.533 ± 0.001
[11]
  hRF: 85
[12]
  hRF: 88
[13]
  hRF: 91
[14]
  hRF: 92
[15]
  hRF: 93
water-methanol
  - m (slope, specific hydrophobic surface area): 1.871 ± 0.002

## CCOC(=O)C(CCc1ccccc1)N[C@@H](C)C(=O)N1CCC[C@H]1C(=O)O (stereo partly drawn) [Substance 1, (S)-1-[N-[1-(ethoxycarbonyl)-3-phenylpropyl]-L-alanyl]-L-proline]
[1]
  hRF: 78
[2]
  hRF: 84
[3]
  hRF: 86
[4]
  hRF: 89
[5]
  hRF: 93
water-acetone
  - m (slope, specific hydrophobic surface area): 2.671 ± 0.002
[6]
  hRF: 81
[7]
  hRF: 85
[8]
  hRF: 90
[9]
  hRF: 92
[10]
  hRF: 93
water-ethanol
  - m (slope, specific hydrophobic surface area): 2.589 ± 0.002
[11]
  hRF: 78
[12]
  hRF: 80
[13]
  hRF: 83
[14]
  hRF: 86
[15]
  hRF: 88
water-methanol
  - m (slope, specific hydrophobic surface area): 1.635 ± 0.001
